According to patent publication US8420657B2 (Novartis AG, priority 2008, dated 2013):

Experiments:
GST-JAK2(808-1132) = molecular target: T1, GST-JAK2(808-1132) (Homo sapiens, UniProt O60674); assay: JAK2 kinase assay (Caliper mobility shift, LabChip 3000); type: biochemical
T1 construct: GST-JAK2(808-1132); purchased Invitrogen (Carlsbad, USA) #4288
Procedure, shortened: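 Eight-point compound series (final 10–0.003 μM) tested on purchased GST-JAK2 kinase domain (808-1132). Peptide FITC-JAK3tide plus ATP reacted 60 min, 30 °C, then quenched with EDTA; turnover from charge-based separation of substrate and product.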

[1] = test system: JAK1/JAK2-dependent nuclear translocation of STAT1-GFP in HT1080 fibrosarcoma cells; assay: STAT1 nuclear translocation assay (Cellomics), IFN-γ stimulated HT1080 STAT1-GFP cells; type: cell-based; details: Homo sapiens, HT-1080, STAT1 translocation pathway
Procedure, shortened: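 IC50 derived from percent nuclear STAT1-GFP translocation, computed from nuclear minus cytoplasmic GFP intensity against untreated baseline and DMSO-stimulated control. Stable HT1080 STAT1-GFP cells received compound (0.003–10 μM, 0.1% DMSO) 30 min ahead of a 2 h 100 ng/ml IFN-γ stimulus, then fixation and Hoechst nuclear masking.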

T1 sequence (O60674 808-1132): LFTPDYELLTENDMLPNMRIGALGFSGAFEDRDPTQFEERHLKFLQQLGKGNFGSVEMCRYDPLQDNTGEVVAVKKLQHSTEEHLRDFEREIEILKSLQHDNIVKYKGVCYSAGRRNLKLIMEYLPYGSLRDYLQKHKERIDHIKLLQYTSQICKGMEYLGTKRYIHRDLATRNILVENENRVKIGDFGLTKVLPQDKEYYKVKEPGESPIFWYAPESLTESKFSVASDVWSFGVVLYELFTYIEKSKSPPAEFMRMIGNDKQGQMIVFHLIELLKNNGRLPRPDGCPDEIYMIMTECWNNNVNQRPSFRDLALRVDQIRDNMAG

Row | SMILES | IC50 (GST-JAK2(808-1132)) [nM] | IC50 [1] [nM]
1 | Cc1ccc(Nc2ncc3ccn(-c4ccc(S(C)(=O)=O)cc4)c3n2)cn1 [Example 229, [7-(4-Methanesulfonyl-phenyl)-7H-pyrrolo[2,3-d]pyrimidin-2-yl]-(6-methyl-pyridin-3-yl)-amine] | 21 | 1580
2 | COc1ccc(Nc2ncc3ccn(-c4ccc(S(C)(=O)=O)cc4)c3n2)cn1 [Example 230, [7-(4-Methanesulfonyl-phenyl)-7H-pyrrolo[2,3-d]pyrimidin-2-yl]-(6-methoxy-pyridin-3-yl)-amine] | 20.5 | 2480
3 | CC(C)Oc1ccc(Nc2ncc3ccn(-c4ccc(C(=O)N5CCOCC5)cc4)c3n2)cn1 [Example 232] | 19 | 1160
4 | Cc1ccc(Nc2ncc3ccn(-c4ccc(C(=O)N5CCOCC5)cc4)c3n2)cc1F [Example 233, {4-[2-(3-Fluoro-4-methyl-phenylamino)-pyrrolo[2,3-d]pyrimidin-7-yl]-phenyl}-morpholin-4-yl-methanone] | 6.4 | 1180
5 | COc1ccc(Nc2ncc3ccn(-c4ccc(C(=O)N5CCOCC5)cc4)c3n2)cn1 [Example 234, {4-[2-(6-Methoxy-pyridin-3-ylamino)-pyrrolo[2,3-d]pyrimidin-7-yl]-phenyl}-morpholin-4-yl-methanone] | 8.1 | 910
6 | N#Cc1ccc(Nc2ncc3ccn(-c4ccc(C(=O)N5CCOCC5)cc4)c3n2)cc1 [Example 237, 4-{7-[4-(Morpholine-4-carbonyl)-phenyl]-7H-pyrrolo[2,3-d]pyrimidin-2-ylamino}-benzonitrile] | 7 | 2560
7 | COc1cc(Nc2ncc3ccn(-c4ccc(C(=O)N5CCOCC5)cc4)c3n2)ccc1C [Example 240, {4-[2-(3-Methoxy-4-methyl-phenylamino)-pyrrolo[2,3-d]pyrimidin-7-yl]-phenyl}-morpholin-4-yl-methanone] | 5.2 | 730
8 | Cn1cc(Nc2ncc3ccn(-c4cc(F)c(C(=O)N5CCOCC5)c(F)c4)c3n2)cn1 [Example 241, {2,6-Difluoro-4-[2-(1-methyl-1H-pyrazol-4-ylamino)-pyrrolo[2,3-d]pyrimidin-7-yl]-phenyl}-morpholin-4-yl-methanone] | 5.4 | 370
9 | O=C(c1c(F)cc(-n2ccc3cnc(Nc4nccs4)nc32)cc1F)N1CCOCC1 [Example 246, {2,6-Difluoro-4-[2-(thiazol-2-ylamino)-pyrrolo[2,3-d]pyrimidin-7-yl]-phenyl}-morpholin-4-yl-methanone] | 28 | 4000
10 | O=C(c1cncc(Nc2ncc3ccn(-c4cc(F)c(CN5CCOCC5)c(F)c4)c3n2)c1)N1CCOCC1 [Example 248, {5-[7-(3,5-Difluoro-4-morpholin-4-ylmethyl-phenyl)-7H-pyrrolo[2,3-d]pyrimidin-2-ylamino]-pyridin-3-yl}-morpholin-4-yl-methanone] | 24 | 4270
11 | COc1ccc(Nc2ncc3ccn(-c4ccc(C(=O)N5CCS(=O)(=O)CC5)cc4)c3n2)cn1 [Example 250, (1,1-Dioxido-thiomorpholin-4-yl)-{4-[2-(6-methoxy-pyridin-3-ylamino)-pyrrolo[2,3-d]pyrimidin-7-yl]-phenyl}-methanone] | 9.1 | 940
12 | COCCn1cc(Nc2ncc3ccn(-c4cc(F)c(C(=O)N5CCOCC5)c(F)c4)c3n2)cn1 [Example 251, (2,6-Difluoro-4-{2-[1-(2-methoxy-ethyl)-1H-pyrazol-4-ylamino]-pyrrolo[2,3-d]pyrimidin-7-yl}-phenyl)-morpholin-4-yl-methanone] | 6.1 | 450
13 | Cn1cc(Nc2ncc3ccn(-c4ccc(C(=O)N5CCOCC5)cc4)c3n2)cn1 [Example 253, {4-[2-(1-Methyl-1H-pyrazol-4-ylamino)-pyrrolo[2,3-d]pyrimidin-7-yl]-phenyl}-morpholin-4-yl-methanone] | 7.1 | 130
14 | C[C@@H]1CN(Cc2ccc(Nc3ncc4ccn(-c5cc(F)c(C(=O)N6CCOCC6)c(F)c5)c4n3)cc2)C[C@H](C)N1 [Example 255, (4-{2-[4-(cis-3,5-Dimethyl-piperazin-1-ylmethyl)-phenylamino]-pyrrolo[2,3-d]pyrimidin-7-yl}-2,6-difluoro-phenyl)-morpholin-4-yl-methanone] | 6.9 | 115
15 | O=C(c1c(F)cc(-n2ccc3cnc(Nc4ccc(CN5CCNC6(CC6)C5)cc4)nc32)cc1F)N1CCOCC1 [Example 257] | 10 | 150

The next compounds have a lower IC50 (GST-JAK2(808-1132)) than those just listed; values first:

Row | IC50 (GST-JAK2(808-1132)) [nM] | IC50 [1] [nM] | SMILES
16 | 3.2 | 258 | CC(C)Oc1ccc(Nc2ncc3ccn(-c4ccc(C(=O)N5CCOCC5)cc4)c3n2)cc1 [Example 231, {4-[2-(4-Isopropoxy-phenylamino)-pyrrolo[2,3-d]pyrimidin-7-yl]-phenyl}-morpholin-4-yl-methanone]
17 | 3.9 | 660 | COCc1ccc(Nc2ncc3ccn(-c4ccc(C(=O)N5CCOCC5)cc4)c3n2)cc1 [Example 239, {4-[2-(4-Methoxymethyl-phenylamino)-pyrrolo[2,3-d]pyrimidin-7-yl]-phenyl}-morpholin-4-yl-methanone]
18 | 4.3 | 355 | Cc1cncc(Nc2ncc3ccn(-c4cc(F)c(C(=O)N5CCOCC5)c(F)c4)c3n2)c1 [Example 242, {2,6-Difluoro-4-[2-(5-methyl-pyridin-3-ylamino)-pyrrolo[2,3-d]pyrimidin-7-yl]-phenyl}-morpholin-4-yl-methanone]
19 | < 3 | 225 | CN1CCN(c2cc(Nc3ncc4ccn(-c5cc(F)c(C(=O)N6CCOCC6)c(F)c5)c4n3)ccn2)CC1 [Example 243, (2,6-Difluoro-4-{2-[2-(4-methyl-piperazin-1-yl)-pyridin-4-ylamino]-pyrrolo[2,3-d]pyrimidin-7-yl}-phenyl)-morpholin-4-yl-methanone]
20 | < 3 | 430 | CN1CCN(Cc2ccc(Nc3ncc4ccn(-c5ccc(S(C)(=O)=O)c(F)c5)c4n3)cc2)CC1 [Example 244, [7-(3-Fluoro-4-methanesulfonyl-phenyl)-7H-pyrrolo[2,3-d]pyrimidin-2-yl]-[4-(4-methyl-piperazin-1-ylmethyl)-phenyl]-amine]
21 | < 3 | 430 | CN1CCN(Cc2cccc(Nc3ncc4ccn(-c5cc(F)c(C(=O)N6CCOCC6)c(F)c5)c4n3)c2)CC1 [Example 245, (2,6-Difluoro-4-{2-[3-(4-methyl-piperazin-1-ylmethyl)-phenylamino]-pyrrolo[2,3-d]pyrimidin-7-yl}-phenyl)-morpholin-4-yl-methanone]
22 | 3.7 | 255 | Cn1cc(Nc2ncc3ccn(-c4cc(F)c(CN5CCOCC5)c(F)c4)c3n2)cn1 [Example 247, [7-(3,5-Difluoro-4-morpholin-4-ylmethyl-phenyl)-7H-pyrrolo[2,3-d]pyrimidin-2-yl]-(1-methyl-1H-pyrazol-4-yl)-amine]
23 | 4.3 | 815 | Cc1ccc(Nc2ncc3ccn(-c4ccc(C(=O)N5CCS(=O)(=O)CC5)cc4)c3n2)cn1 [Example 249, (1,1-Dioxido-thiomorpholin-4-yl)-{4-[2-(6-methyl-pyridin-3-ylamino)-pyrrolo[2,3-d]pyrimidin-7-yl]-phenyl}-methanone]
24 | 3.3 | 340 | COCCn1cc(Nc2ncc3ccn(-c4cc(F)c(CN5CCOCC5)c(F)c4)c3n2)cn1 [Example 252, [7-(3,5-Difluoro-4-morpholin-4-ylmethyl-phenyl)-7H-pyrrolo[2,3-d]pyrimidin-2-yl]-[1-(2-methoxy-ethyl)-1H-pyrazol-4-yl]-amine]
25 | < 3 | 115 | Fc1cc(-n2ccc3cnc(Nc4ccc(CN5CCNC6(CC6)C5)cc4)nc32)cc(F)c1CN1CCOCC1 [Example 256]
26 | < 3 | 80 | O=C1CN(Cc2ccc(Nc3ncc4ccn(-c5cc(F)c(CN6CCOCC6)c(F)c5)c4n3)cc2)CCN1 [Example 258, 4-{4-[7-(3,5-Difluoro-4-morpholin-4-ylmethyl-phenyl)-7H-pyrrolo[2,3-d]pyrimidin-2-ylamino]-benzyl}-piperazin-2-one]
27 | < 3 | 80 | O=C1CN(Cc2ccc(Nc3ncc4ccn(-c5cc(F)c(C(=O)N6CCOCC6)c(F)c5)c4n3)cc2)CCN1 [Example 259, 4-(4-{7-[3,5-Difluoro-4-(morpholine-4-carbonyl)-phenyl]-7H-pyrrolo[2,3-d]pyrimidin-2-ylamino}-benzyl)-piperazin-2-one]
28 | 4.2 | 285 | O=C(c1c(F)cc(-n2ccc3cnc(Nc4ccc(N5CCNCC5)nc4)nc32)cc1F)N1CCOCC1 [Example 262, {2,6-Difluoro-4-[2-(6-piperazin-1-yl-pyridin-3-ylamino)-pyrrolo[2,3-d]pyrimidin-7-yl]-phenyl}-morpholin-4-yl-methanone]
29 | < 3 | 55 | Fc1cc(-n2ccc3cnc(Nc4ccc(N5CCNCC5)nc4)nc32)cc(F)c1CN1CCOCC1 [Example 263, [7-(3,5-Difluoro-4-morpholin-4-ylmethyl-phenyl)-7H-pyrrolo[2,3-d]pyrimidin-2-yl]-(6-piperazin-1-yl-pyridin-3-yl)-amine]
30 | < 3 | 165 | O=C(c1c(F)cc(-n2ccc3cnc(Nc4ccc(N5CCN(CCO)CC5)nc4)nc32)cc1F)N1CCOCC1 [Example 264, [2,6-Difluoro-4-(2-{6-[4-(2-hydroxy-ethyl)-piperazin-1-yl]-pyridin-3-ylamino}-pyrrolo[2,3-d]pyrimidin-7-yl)-phenyl]-morpholin-4-yl-methanone]
